According to patent publication US10202343B2, “MIF modulators” (YALE UNIVERSITY, priority 2008, dated 2019):
pIC50: −log10 of the molar value. Like-named read-outs stand apart in the source and are kept apart here.

How the values were obtained:
[1] = target: T1, Human MIF (MIF tautomerase activity) (Homo sapiens, UniProt P14174); experiment: HPP tautomerase assay; format: biochemical; conditions: for pIC50: read-out: HPP IC50
T1 construct: made in house
T1 sequence (P14174 2-115 limits assumed): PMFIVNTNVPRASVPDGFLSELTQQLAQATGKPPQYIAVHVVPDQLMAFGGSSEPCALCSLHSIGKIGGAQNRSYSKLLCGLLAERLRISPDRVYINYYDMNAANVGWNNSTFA
Protocol: The HPP assay used was adapted to the microtiter plate format. […] Dilutions of the enzyme were prepared in 50 mM sodium phosphate buffer, 1 mM EDTA, pH 6.5. HPP was obtained from Aldrich. A stock solution of 60 mM HPP in ethanol is prepared and kept for maximally 4 hours on ice. The working solution (600 μM) of the substrate was prepared by diluting an aliquot of the stock solution with 50 mM sodium phosphate buffer, 1 mM EDTA, pH 6.5. […] Inhibitor and enzyme solutions were pipetted manually using an Eppendorf 12-channel pipette. Addition of substrate to start the reaction was performed with an Igel 96 pipetting station (OpalJena, Jena, Germany), which allows simultaneous addition of fluid to all 96 wells of the plates. Optical density (OD) was determined using a SPECTRAmax 250 reader (Molecular Devices). The reader was operated with the SoftmaxPro 2.6.1 software. Assay: Three wells of the microtiter plates were filled with buffer only, to allow for blanking. […] The last step was performed using the 96-channel pipetting device. The plate was then immediately (i.e. within a few seconds) transferred manually to the SPECTRAmax 250 reader and the optical density was determined (310 nm). From the data obtained, IC50 values were calculated using Excel® and XLfit® software.

[2] = target: T2, MIF-CD74 Binding (biotin-labeled recombinant human MIF, recombinant human MIF receptor CD74 ectodomain) (Homo sapiens, UniProt P14174); experiment: MIF-CD74 binding (capture) assay; conditions: for CD74 % MaxInhib: number before @; for Capture IC50 / Capture % Max. Inhib.: Table 3; for % Bound: Table 19
T2 sequence (P14174 2-115 limits assumed): T1 sequence (P14174 2-115 limits assumed)
Protocol: The biologically more significant assay is a “capture” assay using immobilized, recombinant MIF receptor ectodomain and biotinylated recombinant MIF (Leng, L., et al. (2003), MIF signal transduction initiated by binding to CD74. J. Exp. Med. 197, 1467-1476). This allows measurement of the inhibition or enhancement of the binding of MIF to its receptor induced by an addend.
Coat 96 well plates with 60 μl/well of 26 ng/μl purified, recombinant human MIF receptor (CD74 ectodomain or CD74^73-232). Incubate at 4° C. overnight. Wash the plate 4 times with 250 μl/well TTBS and add 100 μl/well of superblock (Pierce, Ill.). Incubate at 4° C. overnight. Remove the superblock and add mixture of compound and biotin-labeled recombinant human MIF incubated at 4° C. overnight. (Each compound was pre-incubated at various concentrations with 2 ng/μl 0.2 μM biotin-MIF for 2 hours at room temperature in the dark). After washing the plate 4 times with 250 μl/well TTBS, 60 μl/well of Strepavidin-AP (R&D Systems) was added and incubated for 1 hr at room temperature in the dark. Wells were then washed as before and 60 μl/well of PNPP (Sigma) was added, allowing the color to develop in the dark at room temperature and then read at OD405 nm.

[3] = Table 2, read-out: MIF-CD74 IC50
[4] = Table 19, data cell c5, read-out: CD74 IC50

Cc1ccc2c(c1)oc(=O)n2Cc1ccccc1 [Compound 2, 3-benzyl-6-methyl-3H-benzooxazol-2-one]
pIC50 ([1]; Table 1): 5.47
concentration of CD74 % MaxInhib (number after @) ([2]; Table 4): 1.87 µM
CD74 % MaxInhib ([2]; Table 4): 25%

COc1cccc(Cn2c(=O)oc3ccc(OC)cc32)c1 [Compound 3, 5-methoxy-3-(3-methoxy-benzyl)-3H-benzooxazol-2-one]
concentration of HPP Max Inhib (number after @) ([1]; Table 4): > 500 µM
HPP Max Inhib ([1]; Table 4, number before @): 41%
concentration of CD74 % MaxInhib (number after @) ([2]; Table 4): 1.87 µM

COc1cccc(Cn2c(=O)oc3ccc(CO)cc32)c1 [Compound 4, 5-hydroxymethyl-3-(3-methoxy-benzyl)-3H-benzooxazol-2-one]
HPP Max Inhib ([1]; Table 1): 44%
concentration of HPP Max Inhib (number after @) ([1]; Table 4): 200 µM
concentration of CD74 % MaxInhib (number after @) ([2]; Table 4): 0.039 µM
CD74 % MaxInhib ([2]; Table 4): 27%

COc1cccc(Cn2c(=O)oc3ccc(C)cc32)c1 [Compound 5]
pIC50 ([1]; Table 1): 5.54
concentration of CD74 % MaxInhib (number after @) ([2]; Table 4): 1.87 µM
CD74 % MaxInhib ([2]; Table 4): 42%

COc1ccccc1Cn1c(=O)oc2ccc(F)cc21 [Compound 10]
concentration of CD74 % MaxInhib (number after @) ([2]; Table 4): 0.039 µM

O=c1oc2cc(O)ccc2n1Cc1ccccc1 [Compound 14]
HPP Max Inhib ([1]; Table 1): 28%
concentration of HPP Max Inhib (number after @) ([1]; Table 4): 5 µM
concentration of CD74 % MaxInhib (number after @) ([2]; Table 4): 0.039 µM
CD74 % MaxInhib ([2]; Table 4): 22%

c1ccc(Cn2c(-c3cscn3)nc3ccccc32)cc1 [Compound 17, 4-(1-benzyl-1H-benzo[d]imidazol-2-yl)thiazole]
concentration of HPP Max Inhib (number after 'at') ([1]; Table 5): 5 µM
concentration of CD74 % MaxInhib (number after @) ([2]; Table 5): 0.039 µM
pIC50 ([2]; Table 5, read-out: CD74 IC50): < 3.00

N#Cc1nc2ccccc2n1Cc1ccccc1 [Compound 18, 1-Benzyl-1H-benzoimidazole-2-carbonitrile]
concentration of CD74 % MaxInhib (number after @) ([2]; Table 5): 0.078 µM

c1ccc(Cn2c(Cc3ccccn3)nc3ccccc32)cc1 [Compound 19]
HPP Max. Inhib. ([1]; Table 2): 38%
concentration of CD74 % MaxInhib (number after @) ([2]; Table 5): 1.87 µM
CD74 % MaxInhib ([2]; Table 5): 40%

O=C(c1cc2ccccc2o1)c1cc2ccccc2o1 [Compound 20, bisbenzofuran-2-yl methanone]
concentration of CD74 % MaxInhib (number after @) ([2]; Table 13): 0.058 µM

O=C(c1cc2ccccc2o1)N1CCc2ccccc21 [Compound 21]
pIC50 ([1]; Table 5): 5.52
pIC50 [2, 3]: 5.40
pIC50 ([2]; Table 5, read-out: CD74 IC50): 5.40
pIC50 ([2]; Table 14, read-out: CD74 IC50): 5.40

CC(=O)Oc1ccc2nc(-c3cc4ccccc4o3)oc(=O)c2c1 [Compound 22]
pIC50 ([1]; Table 15): 3.14
pIC50 [2, 3]: 5.60
pIC50 ([2]; Table 5, read-out: CD74 IC50): 5.60
pIC50 ([2]; Table 15, read-out: CD74 IC50): 5.60

O=C(O)COc1ccc2occ(C(=O)c3ccccc3)c2c1 [Compound 23]
pIC50 [2, 3]: 2.82
pIC50 ([2]; Table 5, read-out: CD74 IC50): 2.82
pIC50 ([2]; Table 16, read-out: CD74 IC50): 2.82

c1ccc(COc2ccc3cc(-c4cc[nH]c4)[nH]c3c2)cc1 [Compound 24]
pIC50 [2, 3]: 2.30
pIC50 ([2]; Table 5, read-out: CD74 IC50): 2.30
pIC50 ([2]; Table 22, read-out: CD74 IC50): 2.30

O=c1c2ccc(F)cc2sn1-c1ccc(Cl)cc1 [Compound 25]
pIC50 ([1]; Table 2): 5.38
activity in the capture assay [2]: agonist behavior
MIF-CD74 IC50 ([2]; Table 2): agonist
CD74 IC50 ([2]; Table 5): agonist

O=c1c2ccc(F)cc2sn1-c1ccc(Cl)cc1 [Compound 26]
pIC50 ([1]; Table 3): 5.38
pIC50 ([1]; Table 6, data cell c7): 5.38
Capture IC50 [2]: agonist
CD74 IC50 ([2]; Table 6, data cell c9): agonist

COc1ccc(-n2sc3cc(F)ccc3c2=O)cc1 [Compound 27]
pIC50 ([1]; Table 3): 5.21

COc1cccc(-n2sc3cc(F)ccc3c2=O)c1 [Compound 28]
pIC50 ([1]; Table 3): 4.60
pIC50 ([1]; Table 6, data cell c7): 4.60

O=c1c2ccc(F)cc2sn1-c1cccc(CO)c1 [Compound 29]
Capture % Max. Inhib. [2]: 8%
CD74 % MaxInhib ([2]; Table 6, data cell c8): 8%

O=c1c2cc(F)ccc2sn1-c1ccc(Cl)cc1 [Compound 30]
Capture % Max. Inhib. [2]: 7%
CD74 % MaxInhib ([2]; Table 6, data cell c8): 7%

COc1ccccc1-n1sc2ccc(Cl)cc2c1=O [Compound 31]
pIC50 ([1]; Table 3): 5.18
pIC50 ([1]; Table 6, data cell c7): 5.18
Capture % Max. Inhib. [2]: 7%
CD74 % MaxInhib ([2]; Table 6, data cell c8): 7%

O=c1c2cc(F)ccc2sn1-c1cccc(O)c1 [Compound 32]
pIC50 ([1]; Table 3): 5.23
pIC50 ([1]; Table 6, data cell c7): 5.23
Capture % Max. Inhib. [2]: 13%
CD74 % MaxInhib ([2]; Table 6, data cell c8): 13%

CC(=O)OCc1cccc(-n2sc3cc(F)ccc3c2=O)c1 [Compound 33]
pIC50 ([1]; Table 3): 5.64
pIC50 ([1]; Table 6, data cell c7): 5.64
Capture % Max. Inhib. [2]: 12%
CD74 % MaxInhib ([2]; Table 6, data cell c8): 12%

O=c1c2cc([N+](=O)[O-])ccc2sn1-c1ccc(Cl)cc1 [Compound 34]
pIC50 ([1]; Table 3): 5.21
pIC50 ([1]; Table 6, data cell c7): 5.21
Capture % Max. Inhib. [2]: 11%
CD74 % MaxInhib ([2]; Table 6, data cell c8): 11%

O=c1c2cc(C(F)(F)F)ccc2sn1-c1ccc(Cl)cc1 [Compound 35]
Capture % Max. Inhib. [2]: 12%
CD74 % MaxInhib ([2]; Table 6, data cell c8): 12%

O=c1c2ccc(Br)cc2sn1-c1ccc(Cl)cc1 [Compound 36]
pIC50 ([1]; Table 3): 4.96
pIC50 ([1]; Table 6, data cell c7): 4.96
Capture % Max. Inhib. [2]: 10%
CD74 % MaxInhib ([2]; Table 6, data cell c8): 10%

COc1cccc(-n2sc3ccc(F)cc3c2=O)c1 [Compound 38]
pIC50 ([1]; Table 3): 5.10
pIC50 ([1]; Table 6, data cell c7, listed as MIF-113): 5.10
Capture IC50 [2]: agonist
CD74 IC50 ([2]; Table 6, data cell c9): agonist

O=c1c2cc(Br)ccc2sn1-c1ccc(Cl)cc1 [Compound 39]
pIC50 ([1]; Table 3): 5.10
pIC50 ([1]; Table 6, data cell c7): 5.10

N#Cc1ccc2sn(-c3ccc(Cl)cc3)c(=O)c2c1 [Compound 40]
pIC50 ([1]; Table 3): 4.72
pIC50 ([1]; Table 6, data cell c7): 4.72
Capture IC50 [2]: agonist
CD74 IC50 ([2]; Table 6, data cell c9): agonist

COC(=O)CC1CC(c2ccc(O)cc2)=NO1 (centres unmarked) [ISO-1, reference compound]
activity in the HPP tautomerase assay [1]: inactive
activity in the capture assay [2]: inactive

Oc1ccc(-c2cn(Cc3ccccc3)nn2)cc1 [MIF-002]
% Bound [2]: 96%
pIC50 [2, 4]: 2.22

Oc1ccc(-n2cc(Cc3ccccc3)nn2)cc1 [MIF-003]
pIC50 ([2]; Table 18, read-out: CD74 IC50): 5.46

COc1ccc(Cn2cc(-c3ccc(O)cc3)nn2)cc1 [MIF-004]
% Bound [2]: 94%

COc1cccc(Cn2cc(-c3ccc(O)cc3)nn2)c1 [MIF-005]
% Bound [2]: 67%
pIC50 [2, 4]: 4.00

Oc1ccc(-c2cn(-c3cccnc3)nn2)cc1 [MIF-007]
pIC50 ([1]; Table 20): 3.01

Oc1ccc(-c2cn(-c3cncc4ccccc34)nn2)cc1 [MIF-008]
pIC50 ([1]; Table 20): 4.49

Oc1ccc(-n2cc(-c3cncc4ccccc34)nn2)cc1 [MIF-021]
HPP IC50 ([1]; Table 21): agonist
IC50 ([2]; Table 21, column beside HPP IC50): Agonist

Cc1cccc(Cn2cc(-c3ccc(O)cc3)nn2)c1 [MIF-031]
% Bound [2]: 100%

Cc1ccccc1Cn1cc(-c2ccc(O)cc2)nn1 [MIF-032]
% Bound [2]: 100%

COc1ccccc1Cn1cc(-c2ccc(O)cc2)nn1 [MIF-033]
HPP IC50 ([1]; Table 19, data cell c6): agonist
CD74 IC50 ([2]; Table 19, data cell c5): agonist

COc1cccc(Cn2cc(-c3ccc(O)cc3)nn2)c1OC [MIF-034]
pIC50 ([1]; Table 19, data cell c6): 6.00 to 6.30
pIC50 [2, 4]: 5.92

Oc1ccc(-c2cn(Cc3ccccn3)nn2)cc1 [MIF-035]
pIC50 ([2]; Table 20, read-out: CD74 IC50): 3.52

O=C(O)c1cccc(Cn2cc(-c3ccc(O)cc3)nn2)c1 [MIF-037]
% Bound [2]: 70-90%

Oc1ccc2c(c1)oc1ccccc12 [MIF-039]
pIC50 ([2]; Table 17, read-out: CD74 IC50): 3.05

Cc1ccc2oc(C(=O)c3cc4ccccc4o3)cc2c1 [MIF-078]
concentration of HPP Max Inhib (number after @) ([1]; Table 13): 700 µM
HPP Max Inhib ([1]; Table 13, data cell c5, number before @): 47%

Cc1ccc2cc(C(=O)N3CCc4ccccc43)oc2c1 [MIF-082]
concentration of CD74 % MaxInhib (number after @) ([2]; Table 14): 0.24 µM
CD74 % MaxInhib ([2]; Table 14): 19%

COc1cccc(Cc2cn(-c3ccc(O)cc3)nn2)c1OC [MIF-084]
pIC50 ([1]; Table 18): 3.28

O=Cc1cccc(-n2sc3cc(F)ccc3c2=O)c1 [MIF-135]
pIC50 ([1]; Table 6, data cell c7): 5.22

COCc1cccc(-n2sc3cc(F)ccc3c2=O)c1 [MIF-136]
pIC50 ([1]; Table 6, data cell c7): 5.62

COc1cccc(-n2sc3ccc(F)cc3c2=O)c1 [MIF-144]
pIC50 ([1]; Table 6, data cell c7): 5.56
